Assay results reported in US9067871B2, “Aminotetraline derivatives, pharmaceutical compositions containing them, and their use in therapy” (ABBVIE DEUTSCHLAND GMBH & CO KG, priority 2009, dated 2015).
Structures can show the parent of a compound that is named as a salt.

Target: human GlyT1c (Homo sapiens (Human), UniProt P48067)
Experiment: [3H]-Glycine uptake into recombinant CHO cells expressing human GlyT1
Assay type: cell-based
Details: hGlyT1c_5_CHO cells, 200 nM [3H]-glycine
Protocol: 1. [^3H]-Glycine uptake into recombinant CHO cells expressing human GlyT1: Human GlyT1c expressing recombinant hGlyT1c—5_CHO cells were plated at 20,000 cells per well in 96 well Cytostar-T scintillation microplates (Amersham Biosciences) and cultured to sub-confluency for 24 h. […] 80 μl HBSS buffer were added, followed by 10 μl inhibitor or vehicle (10% DMSO) and 10 μl [^3H]-glycine (TRK71, Amersham Biosciences) to a final concentration of 200 nM for initiation of glycine uptake. The plates were placed in a Wallac Microbeta (PerkinElmer) and continuously counted by solid phase scintillation spectrometry during up to 3 hours. Nonspecific uptake was determined in the presence of 10 μM Org24598.

Sequence of human GlyT1c (P48067 whole entry): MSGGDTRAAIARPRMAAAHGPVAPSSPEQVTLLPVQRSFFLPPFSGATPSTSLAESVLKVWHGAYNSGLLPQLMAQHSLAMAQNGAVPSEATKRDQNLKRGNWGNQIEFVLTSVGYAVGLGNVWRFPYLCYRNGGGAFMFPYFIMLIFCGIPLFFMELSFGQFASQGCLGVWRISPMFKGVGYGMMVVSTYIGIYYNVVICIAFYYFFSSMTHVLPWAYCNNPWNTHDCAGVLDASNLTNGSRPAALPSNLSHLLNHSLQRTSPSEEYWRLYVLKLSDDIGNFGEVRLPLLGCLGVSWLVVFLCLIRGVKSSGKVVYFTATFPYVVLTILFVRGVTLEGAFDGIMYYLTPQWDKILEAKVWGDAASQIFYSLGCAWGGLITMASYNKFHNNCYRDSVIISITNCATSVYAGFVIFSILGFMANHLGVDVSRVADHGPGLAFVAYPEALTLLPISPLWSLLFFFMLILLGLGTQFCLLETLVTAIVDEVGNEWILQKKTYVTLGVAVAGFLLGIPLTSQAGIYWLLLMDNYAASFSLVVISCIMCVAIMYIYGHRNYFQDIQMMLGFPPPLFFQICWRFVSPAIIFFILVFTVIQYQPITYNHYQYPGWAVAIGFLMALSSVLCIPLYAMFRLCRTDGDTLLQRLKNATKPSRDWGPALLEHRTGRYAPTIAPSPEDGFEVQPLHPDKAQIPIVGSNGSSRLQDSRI

IC50 | Compound
≤ 0.1 µM | CCCS(=O)(=O)N(C)Cc1ccc2c(c1)[C@H](Cc1ccccc1)[C@H](N)CC2 (relative stereo) [Example 45, N-{[cis-7-amino-8-benzyl-5,6,7,8-tetrahydronaphthalen-2-yl]methyl}-N-methylpropane-1-sulfonamide hydrochloride]
≤ 1 µM | CCOC(=O)NC1CCc2ccc(OCCNS(=O)(=O)c3cn(C)cn3)cc2C1Cc1ccc(Cl)c(Cl)c1 (centres unmarked) [Example 2, Ethyl 1-(3,4-dichlorobenzyl)-7-(2-(1-methyl-1H-imidazole-4-sulfonamido)ethoxy)-1,2,3,4-tetrahydronaphthalen-2-ylcarbamate]

Compound | IC50
CCOC(=O)NC1CCc2ccc(OCCNC(=O)OC(C)(C)C)cc2C1Cc1ccc(Cl)c(Cl)c1 (centres unmarked) [Example 1, [7-(2-tert-Butoxycarbonylamino-ethoxy)-1-(3,4-dichloro-benzyl)-1,2,3,4-tetrahydro-naphthalen-2-yl]-carbamic acid ethyl ester] | ≤ 1000 µM

Target: human GlyT1c transporter (Homo sapiens (Human), UniProt P48067)
Experiment: Radioligand binding assay using recombinant CHO cell membranes expressing human GlyT1
Details: human GlyT1c-expressing CHO cell membranes; read-out: radioligand binding Kiapp
Description: 2. Radioligand binding assays using recombinant CHO cell membranes expressing human GlyT1: […]

Sequence of human GlyT1c transporter (P48067 whole entry): as above

Compound | Ki
CCCS(=O)(=O)N(C)Cc1ccc2c(c1)[C@H](Cc1ccccc1)[C@H](N)CC2 (relative stereo) [Example 45, N-{[cis-7-amino-8-benzyl-5,6,7,8-tetrahydronaphthalen-2-yl]methyl}-N-methylpropane-1-sulfonamide hydrochloride] | ≤ 100 nM
CCOC(=O)NC1CCc2ccc(OCCNC(=O)OC(C)(C)C)cc2C1Cc1ccc(Cl)c(Cl)c1 (centres unmarked) [Example 1, [7-(2-tert-Butoxycarbonylamino-ethoxy)-1-(3,4-dichloro-benzyl)-1,2,3,4-tetrahydro-naphthalen-2-yl]-carbamic acid ethyl ester] | ≤ 10000 nM
Cn1cc(S(=O)(=O)NCCOc2ccc3c(c2)C(Cc2ccccc2Cl)C(N)CC3)cn1 (centres unmarked) [Example 301, 1-Methyl-1H-pyrazole-4-sulfonic acid {2-[7-amino-8-(2-chloro-benzyl)-5,6,7,8-tetrahydronaphthalen-2-yloxy]-ethyl}-amide hydrochloride] | ≤ 10 nM
CNC1CCc2ccc(OCCNS(=O)(=O)c3cn(C)cn3)cc2C1Cc1ccccc1Cl (centres unmarked) [Example 303, 1-Methyl-1H-imidazole-4-sulfonic acid {2-[8-(2-chloro-benzyl)-7-methylamino-5,6,7,8-tetrahydro-naphthalen-2-yloxy]-ethyl}-amide hydrochloride] | ≤ 100 nM
Cn1cnc(S(=O)(=O)NCCOc2ccc3c(c2)C(Cc2ccccc2Cl)C(N)CC3)c1 (centres unmarked) [Example 305, 1-Methyl-1H-imidazole-4-sulfonic acid {2-[7-amino-8-(2-chloro-benzyl)-5,6,7,8-tetrahydronaphthalen-2-yloxy]-ethyl}-amide hydrochloride] | ≤ 100 nM
CC(=O)NC1CCc2ccc(OCCNS(=O)(=O)CC3CC3)cc2C1Cc1cccc(Cl)c1 (centres unmarked) [Example 306, N-[1-(3-Chloro-benzyl)-7-(2-cyclopropylmethanesulfonylamino-ethoxy)-1,2,3,4-tetrahydronaphthalen-2-yl]-acetamide] | ≤ 100 nM
CCNC1CCc2ccc(OCCNS(=O)(=O)CC3CC3)cc2C1Cc1cccc(Cl)c1 (centres unmarked) [Example 307, N-{2-[8-(3-Chloro-benzyl)-7-ethylamino-5,6,7,8-tetrahydro-naphthalen-2-yloxy]-ethyl}-C-cyclopropyl-methanesulfonamide hydrochloride] | ≤ 10 nM
NC1CCc2ccc(CCNS(=O)(=O)CC3CC3)cc2C1Cc1cccc(Cl)c1 (centres unmarked) [Example 310, N-{2-[7-Amino-8-(3-chloro-benzyl)-5,6,7,8-tetrahydro-naphthalen-2-yl]-ethyl}-C-cyclopropyl-methanesulfonamide hydrochloride] | ≤ 1000 nM
CCCS(=O)(=O)NCCOc1ccc2c(c1)C(Cc1ccccc1F)C(NC)CC2 (centres unmarked) [Example 311, Propane-1-sulfonic acid {2-[8-(2-fluoro-benzyl)-7-methylamino-5,6,7,8-tetrahydronaphthalen-2-yloxy]-ethyl}-amide hydrochloride] | ≤ 100 nM
CNC1CCc2ccc(OCCNS(=O)(=O)CC3CC3)cc2C1Cc1ccccc1F (centres unmarked) [Example 312, C-Cyclopropyl-N-{2-[8-(2-fluoro-benzyl)-7-methylamino-5,6,7,8-tetrahydro-naphthalen-2-yloxy]-ethyl}-methanesulfonamide hydrochloride] | ≤ 100 nM
CNC1CCc2ccc(CCNS(=O)(=O)c3cn(C)cn3)cc2C1Cc1cccc(Cl)c1 (centres unmarked) [Example 313, 1-Methyl-1H-imidazole-4-sulfonic acid {2-[8-(3-chloro-benzyl)-7-methylamino-5,6,7,8-tetrahydro-naphthalen-2-yl]-ethyl}-amide] | ≤ 100 nM
CCCS(=O)(=O)NCCOc1ccc2c(c1)C(CC1CCCCC1)C(NC)CC2 (centres unmarked) [Example 314, Propane-1-sulfonic acid [2-(8-cyclohexylmethyl-7-methylamino-5,6,7,8-tetrahydronaphthalen-2-yloxy)-ethyl]-amide trifluoroacetate] | ≤ 1000 nM
Cn1cnc(S(=O)(=O)NCCOc2ccc3c(c2)C(Cc2ccccc2Cl)C(N2CCCC2)CC3)c1 (centres unmarked) [Example 315, 1-Methyl-1H-imidazole-4-sulfonic acid {2-[8-(2-chloro-benzyl)-7-pyrrolidin-1-yl-5,6,7,8-tetrahydro-naphthalen-2-yloxy]-ethyl}-amide hydrochloride] | ≤ 1000 nM
Cc1nc(S(=O)(=O)NCCOc2ccc3c(c2)C(Cc2cccc(Cl)c2)C(N)CC3)cn1C (centres unmarked) [Example 316, 1,2-Dimethyl-1H-imidazole-4-sulfonic acid {2-[7-amino-8-(3-chloro-benzyl)-5,6,7,8-tetrahydro-naphthalen-2-yloxy]-ethyl}-amide hydrochloride] | ≤ 1000 nM
Cn1cc(S(=O)(=O)NCCOc2ccc3c(c2)C(Cc2cccc(Cl)c2)C(N2CCCC2)CC3)cn1 (centres unmarked) [Example 318, 1-Methyl-1H-pyrazole-4-sulfonic acid {2-[8-(3-chloro-benzyl)-7-pyrrolidin-1-yl-5,6,7,8-tetrahydro-naphthalen-2-yloxy]-ethyl}-amide hydrochloride] | ≤ 10 nM
Cn1cc(S(=O)(=O)NCCOc2ccc3c(c2)C(Cc2cccc(Cl)c2)C(N2CCC2)CC3)cn1 (centres unmarked) [Example 322, 1-Methyl-1H-pyrazole-4-sulfonic acid {2-[7-azetidin-1-yl-8-(3-chloro-benzyl)-5,6,7,8-tetrahydro-naphthalen-2-yloxy]-ethyl}-amide hydrochloride] | ≤ 10 nM
CCCS(=O)(=O)NCCOc1ccc2c(c1)C(Cc1cccc(Cl)c1)C(N1CCCC1)CC2 (centres unmarked) [Example 323, Propane-1-sulfonic acid {2-[8-(3-chloro-benzyl)-7-pyrrolidin-1-yl-5,6,7,8-tetrahydronaphthalen-2-yloxy]-ethyl}-amide hydrochloride] | ≤ 1000 nM
CCCS(=O)(=O)CCc1ccc2c(c1)C(Cc1cccc(Cl)c1)C(N)CC2 (centres unmarked) [Example 326, 1-(3-Chloro-benzyl)-7-[2-(propane-1-sulfonyl)-ethyl]-1,2,3,4-tetrahydro-naphthalen-2-ylamine hydrochloride] | ≤ 1000 nM

Next, values leading:

Ki | Compound
≤ 100 nM | CCOC(=O)NC1CCc2ccc(OCCNS(=O)(=O)c3cn(C)cn3)cc2C1Cc1ccc(Cl)c(Cl)c1 (centres unmarked) [Example 2, Ethyl 1-(3,4-dichlorobenzyl)-7-(2-(1-methyl-1H-imidazole-4-sulfonamido)ethoxy)-1,2,3,4-tetrahydronaphthalen-2-ylcarbamate]
≤ 10 nM | CNC1CCc2ccc(OCCNS(=O)(=O)CC3CC3)cc2C1Cc1cccc(Cl)c1 (centres unmarked) [Example 300, N-{2-[8-(3-Chloro-benzyl)-7-methylamino-5,6,7,8-tetrahydro-naphthalen-2-yloxy]-ethyl}-C-cyclopropyl-methanesulfonamide hydrochloride]
≤ 100 nM | CNC1CCc2ccc(OCCNS(=O)(=O)c3cnn(C)c3)cc2C1Cc1ccccc1Cl (centres unmarked) [Example 302, 1-Methyl-1H-pyrazole-4-sulfonic acid {2-[8-(2-chloro-benzyl)-7-methylamino-5,6,7,8-tetrahydro-naphthalen-2-yloxy]-ethyl}-amide hydrochloride]
≤ 1000 nM | CCCS(=O)(=O)NCCc1ccc2c(c1)C(Cc1cccc(Cl)c1)C(N)CC2 (centres unmarked) [Example 304, Propane-1-sulfonic acid {2-[7-amino-8-(3-chloro-benzyl)-5,6,7,8-tetrahydro-naphthalen-2-yl]-ethyl}-amide hydrochloride]
≤ 10 nM | CCCS(=O)(=O)NCCCc1ccc2c(c1)C(Cc1cccc(Cl)c1)C(NC)CC2 (centres unmarked) [Example 308, Propane-1-sulfonic acid {3-[8-(3-chloro-benzyl)-7-methylamino-5,6,7,8-tetrahydronaphthalen-2-yl]-propyl}-amide hydrochloride]
≤ 100 nM | CCCS(=O)(=O)NCCc1ccc2c(c1)C(Cc1cccc(Cl)c1)C(NC)CC2 (centres unmarked) [Example 309, Propane-1-sulfonic acid {2-[8-(3-chloro-benzyl)-7-methylamino-5,6,7,8-tetrahydronaphthalen-2-yl]-ethyl}-amide]
≤ 100 nM | O=S(=O)(CC1CC1)NCCOc1ccc2c(c1)C(Cc1cccc(Cl)c1)C(N1CCCC1)CC2 (centres unmarked) [Example 317, N-{2-[8-(3-Chloro-benzyl)-7-pyrrolidin-1-yl-5,6,7,8-tetrahydro-naphthalen-2-yloxy]-ethyl}-C-cyclopropyl-methanesulfonamide hydrochloride]
≤ 100 nM | Cn1cnc(S(=O)(=O)NCCOc2ccc3c(c2)C(Cc2cccc(Cl)c2)C(N2CCCC2)CC3)c1 (centres unmarked) [Example 319, 1-Methyl-1H-imidazole-4-sulfonic acid {2-[8-(3-chloro-benzyl)-7-pyrrolidin-1-yl-5,6,7,8-tetrahydro-naphthalen-2-yloxy]-ethyl}-amide hydrochloride]
≤ 100 nM | O=S(=O)(CC1CC1)NCCOc1ccc2c(c1)C(Cc1cccc(Cl)c1)C(N1CCC1)CC2 (centres unmarked) [Example 320, N-{2-[7-Azetidin-1-yl-8-(3-chloro-benzyl)-5,6,7,8-tetrahydro-naphthalen-2-yloxy]-ethyl}-C-cyclopropyl-methanesulfonamide]
≤ 10 nM | Cn1cnc(S(=O)(=O)NCCOc2ccc3c(c2)C(Cc2cccc(Cl)c2)C(N2CCC2)CC3)c1 (centres unmarked) [Example 321, 1-Methyl-1H-imidazole-4-sulfonic acid {2-[7-azetidin-1-yl-8-(3-chloro-benzyl)-5,6,7,8-tetrahydro-naphthalen-2-yloxy]-ethyl}-amide hydrochloride]
≤ 10 nM | Cn1cc(S(=O)(=O)NCCOc2ccc3c(c2)C(Cc2ccccc2)C(N2CCC2)CC3)cn1 (centres unmarked) [Example 324, 1-Methyl-1H-pyrazole-4-sulfonic acid [2-(7-azetidin-1-yl-8-benzyl-5,6,7,8-tetrahydronaphthalen-2-yloxy)-ethyl]amide hydrochloride]
